Data from US20140186271A1, “REDUCING DENTAL CARIES” (UNIVERSITY OF ROCHESTER, priority 2011, published 2014).
≈ marks a conversion by molar mass, not a printed value.

Assays:
Assay type in all cases: cell-based
[1] = test system: Streptococcus mutans UA159; assay: growth of S. mutans in planktonic culture (optical density at 600 nm, BHI medium); conditions: rich medium, FIG. 1
Description: Bacterial Strain. The strain of Streptococcus mutans used in these experiments is referred to as UA159, the genomic type strain of these organisms (Murchison et al., Infect. Immun. 54(2):273-82 (1986); Ajdic et al., Proc. Natl. Acad. Sci. USA 99(22):14434-9 (2002)). Growth experiments. Two types of growth experiments were conducted: growth of the organism in planktonic culture and growth of the organism in a mono-species biofilm culture. In the planktonic culture experiments, the effects of simvastatin concentration on the growth ability of Streptococcus mutans UA159 was determined. In the second set of experiments, the effects of simvastatin concentration on the ability of S. mutans to produce extracellular polysaccharides (EPS), which is highly related to its ability to grow and survive on the surfaces of teeth (Yamashita et al., Infect. Immun 61(9):3811-7 (1993)), was determined. The planktonic experiments were conducted by growing S. mutans in Brain Heart Infusion medium (BHI) supplemented with specific concentrations of simvastatin dissolved in 1% ethanol/99% water. Simvastatin was obtained from Sigma Chemical Co. (St. Louis, Mo.). Growth was monitored as increasing optical density at 600 nm, using a BioScreen C automated-recording instrument, set at 37° C. and with shaking set at 10 seconds, every 15 minutes, to ensure suspension of the culture (Growth Curves USA, N.J.). […]

[2] = test system: E. faecalis; assay: minimum inhibitory concentration against a panel of human pathogens; conditions: Enterococcus faecalis
Description: (§1) Using well established methodologies, the minimum inhibitory concentration of simvastatin was determined against a panel of human pathogens.

[3] = test system: E. faecium; assay: as above; conditions: Enterococcus faecium
Description: as §1

[4] = test system: Klebsiella; assay: as above
Description: as §1

[5] = test system: P. aeruginosa; assay: as above; conditions: Pseudomonas aeruginosa
Description: as §1

[6] = test system: S. aureus; assay: as above; conditions: Staphylococcus aureus
Description: as §1

[7] = test system: S. mutans; assay: as above; conditions: Streptococcus mutans
Description: as §1

SMILES: CCC(C)(C)C(=O)O[C@H]1C[C@@H](C)C=C2C=C[C@H](C)[C@H](CC[C@@H]3C[C@@H](O)CC(=O)O3)[C@H]21 [simvastatin]
- concentration at which growth was effectively halted [1]: ≥ 64 µg/mL
- MIC [2]: 64 µg/mL (≈ 153 µM)
- MIC [3]: 64 µg/mL (≈ 153 µM)
- MIC [4]: 64 µg/mL (≈ 153 µM)
- MIC [5]: > 256 µg/mL
- MIC [6]: 64 µg/mL (≈ 153 µM)
- MIC [7]: 16 µg/mL (≈ 38.2 µM)
